Measurements from US20220299500A1, “NDUFS2 SUBUNIT KNOCKOUT HUMAN CELL LINE” (priority 2019, published 2022).
“Also recorded” adds a separate entry of the source.

Legend:
Format in all cases: cell-based, human
mutant HEK293ΔNDUFS2 [1] = experiment: ATP synthesis of mutant cells grown with therapeutics, Mitochondrial ToxGlo Assay; details: for amount of ATP compared to mutant cells treated with DMSO: day 6, luminescence normalized to DMSO control; for restoration of ATP synthesis defects of the mutant: concentration not given
Experimental: (§1) ATP synthesis and cell-membrane integrity of strains. Potential mitochondrial dysfunction of strains was assessed by using the Mitochondrial ToxGlo Assay (Promega Corporation, Madison, Wis.), according to the procedure described by the manufacturer. This assay is based on the measurements of biomarkers associated with changes in cell membrane integrity and cellular ATP levels. Briefly, the parent and mutant cells grown in flasks were harvested by trypsinization and resuspended in fresh medium. Approximately 10,000 cells/well were added to a 96-well plate and incubated overnight. A working stock of antimycin A, which is a mitochondrial toxin (complex III inhibitor) was prepared at a concentration of 150 μM in a glucose-free DMEM medium (Sigma-Aldrich) supplemented with 10 mM galactose (Sigma-Aldrich). Serial dilutions of the mitochondrial toxin were prepared in a separate 96-well plate (in galactose containing medium). Overnight grown cells were washed with glucose-free galactose containing medium, and fresh (galactose containing medium) was added into wells at 50 μl/well. Fifty μl volumes of the serial dilutions of toxin were transferred from the stock plate to the wells in cell culture plate. The wells carrying the vehicle controls received the medium with no toxin. The plate was incubated at 37° C. for 90 min. Twenty μl volumes of 5× Cytotoxicity Reagent were added to each well, the plate was incubated at 37° C. for further 30 min, and the fluorescence was measured at 475 nmEX/500-550 nmEM, by using a Glomax Discover plate reader (Promega Corporation). The assay plate was equilibrated to room temperature, 100 μl ATP Detection Reagent was added to each well, and luminescence was measured by using the same plate reader.
Restoring (rescuing) the altered/lost phenotypes of the mutant with the use of potential complex I therapeutics. Effectiveness of the potential complex I therapeutics in restoring the metabolic defects of the mutant HEK293ΔNDUFS2 was evaluated. For this purpose, the mutant cells were treated with the therapeutic idebenone or its analog SBT-220 and change in ATP synthesis was examined. In this procedure, the mutant cells were suspended in culture media supplemented with 0, 1, or 10 μM of idebenone, conjugate SBT-220, conjugate SBT-222, or elamipretide, and plated in 96 well plates at 2,000 cells/well. Cells suspended in DMSO served as controls. Fresh media (with or without therapeutics) were added on days 0, 3 and 5. Cellular ATP synthesis was assessed on day 6 of incubation by using the Mitochondrial ToxGlo Assay, as described above. The responses of ATP synthesis in the treatment groups were normalized to that of the control group.
(§2) Restoring (rescuing) the impaired growth and respiration the mutant. Effectiveness of the potential Complex I therapeutic idebenone in restoring the ATP synthesis defects of the mutant HEK293ΔNDUFS2 was evaluated. In this procedure, mutant cells were cultured in media supplemented with 1 μM of idebenone in 96-well plates at 2,000 cells/well. Fresh media (with or without the therapeutic) were added on days 0, 3 and 5. Cellular ATP pool was assessed on day 6 of incubation by Mitochondrial ToxGlo Assay. Mutant cells were also cultured in 6-well plates at 2000 cells/well in medium supplemented 0.5, 1, 5, or 10 μM of idebenone. Fresh media containing the drug was added on days 3, 6 and 9, and the cell counts in wells of triplicates was determined following 10 days incubation. Efficacy of idebenone in improving respiration of permeabilized mutant cells was measured by O2k respirometry as described above with the following modification: subsequent to glutamate+malate injection, idebenone was injected into chambers at 1 μM final concentration. The control groups received DMSO.

mutant HEK293ΔNDUFS2 [2] = experiment: Cell growth of mutant cultures treated for 10 days (cell counts)
Experimental: as §2

[3] = test system: permeabilized mutant HEK293ΔNDUFS2 cells; experiment: Oxygen consumption of permeabilized mutant cells, Oroboros O2k respirometry
Experimental: Mitochondrial respiration measurements with Oroboros O2K respirometry. Oxygen consumption rate (OCR) of strains was determined using protocols described elsewhere (Alleman R J, et al. Am J Physiol Heart Circ Physiol 2016, 310(10):H1360-1370; Goswami I, et al. Biophys J 2018, 114(12):2951-2964). Briefly, the parent type HEK293 and the mutant HEK293ΔNDUFS2 grown for eight days in 225 cm^2 flasks for 75-80% confluence were harvested by treatment with trypsin-EDTA, centrifuged at 300×g for 3 min, and resuspended in assay buffer Z (105 mM 2-(N-Morpholino)ethanesulfonic acid potassium salt, 30 mM KCl, 10 mM KH2PO4, 5 mM MgCl2-6H2O, 0.5 mg/mL bovine serum albumin, 20 mM creatine, 1 mM EGTA [pH 7.1] in dH2O). Approximately one million cells in 2 ml volumes were then introduced into the Oroboros O2K respiration chamber, which is equipped with calibrated oxygen measuring polarographic sensors. The oxygen signals were allowed to stabilize before closing the chamber to the outside air while chamber temperature was maintained at 37° C. Subsequently, the OCR was recorded after injection with none (basal), 2 mM of malate plus 10 mM glutamate (G/M), 5 mM of adenosine diphosphate (ADP), and 1.0 μM protonophore Carbonyl cyanide 4-(trifluoromethoxy)phenylhydrazone (FCCP).
Cell growth and metabolism. To measure the cell proliferation of parent HEK293 and mutant HEK293ΔNDUFS2, aliquots of 50,000 cells were introduced into 75 cm^2 flasks each carrying 25 ml growth media and cell numbers were quantified in triplicates after 4 and 6 days of incubation. Extracellular Acidification Rate (ECAR) was determined with an Agilent Seahorse XFe96 analyzer (Ryall J G. Methods Mol Biol 2017, 1556:245-253). Cellular ATP pool and cell-membrane porousness were measured using Mitochondrial ToxGlo Assay (Promega Corporation, Madison, Wis.). Oxygen consumption of saponin-permeabilized cells (Hahn D, et al. Am J Physiol Cell Physiol 2019, 317(4):C665-C673) was measured by Oroboros O2k respirometry (Alleman R J, et al. Am J Physiol Heart Circ Physiol 2016, 310(10):H1360-1370; Goswami I, et al. Biophys J 2018, 114(12):2951-2964).
as §2

mutant HEK293ΔNDUFS2 [4] = experiment: ATP synthesis in presence of respiratory inhibitor, Mitochondrial ToxGlo Assay; details: Antimycin A added to reaction media
Experimental: as §1

parent HEK293 [5] = experiment: as above; details: Antimycin A added to reaction media, 90 min
Experimental: as §1

mutant HEK293ΔNDUFS2 [6] = experiment: Cell-membrane porousness in presence of respiratory inhibitor, Mitochondrial ToxGlo Assay
Experimental: as §1

parent HEK293 [7] = experiment: as above; details: Antimycin A added to reaction medium
Experimental: as §1

[8] = 1 μM final concentration, vs DMSO

Row | Compound | amount of ATP compared to mutant cells treated with DMSO (mutant HEK293ΔNDUFS2 [1]; 1 μM) [folds] | restoration of ATP synthesis / ATP pool of the mutant (mutant HEK293ΔNDUFS2 [1]; 1 μM, long-term treatment (six days)) | improvement of ATP synthesis defects of the mutant (mutant HEK293ΔNDUFS2 [1]; 10 μM) | restoration of ATP synthesis defects of the mutant (mutant HEK293ΔNDUFS2 [1]) | more cells recovered compared to the DMSO control (mutant HEK293ΔNDUFS2 [2]; 0.5 μM, 10 days) [%] | cell proliferation (mutant HEK293ΔNDUFS2 [2]; 0.5 μM, long-term treatment) | growth of the mutant (mutant HEK293ΔNDUFS2 [2]; 1 μM, 10 days) | growth of the mutant (mutant HEK293ΔNDUFS2 [2]; 5 μM, 10 days) | effect on mutant cells in growth test (mutant HEK293ΔNDUFS2 [2]; 10 μM, 10 days) | Complex I respiration ([3]; 1 μM final concentration injected after glutamate+malate, vs DMSO) | Complex II respiration [3, 8] | OXPHOS capacity [3, 8] | maximal respiration [3, 8] | oxygen consumption all along the ETC ([3]; idebenone treatment vs DMSO) | decline of ATP synthesis in the mutant compared to the parent (mutant HEK293ΔNDUFS2 [4]) | ATP synthesis ability (mutant HEK293ΔNDUFS2 [4]; 90 min) | ATP synthesis ability (parent HEK293 [5]) | membrane porousness (mutant HEK293ΔNDUFS2 [6]; Antimycin A added to reaction medium) | cell membrane porousness of the mutant relative to the parent (mutant HEK293ΔNDUFS2 [6]; as a result of antimycin A treatment) | membrane porousness (parent HEK293 [7])
1 | COC1=C(OC)C(=O)C(CCCCCCCCCCO)=C(C)C1=O [idebenone] | 2.4 | restored the ATP synthesis of the mutant to some extent; also recorded: significantly greater amount of ATP; also recorded: improved ATP pool | failed to improve | partially restored | 32.1 | enhanced cell proliferation | did not improve growth | did not improve growth | caused cell death | improved significantly | improved significantly | improved significantly | improved significantly | improved oxygen consumption all along the ETC | – | – | – | – | – | –
2 | Antimycin A | – | – | – | – | – | – | – | – | – | – | – | – | – | – | up to 2.2 folds | declined drastically | declined drastically | more porous | up to 4.5 folds | more porous
3 | elamipretide | 2.1 | – | – | partially restored | – | – | – | – | – | – | – | – | – | – | – | – | – | – | – | –
